Assay results published in publication PMC3086806, “Mining a Cathepsin Inhibitor Library for New Antiparasitic Drug Leads” (PLoS Neglected Tropical Diseases, 2011).
Read-outs that look alike come from different tables or passages of the source.

Tests used:
[1] = molecular target: T1, falcipain-3 (Plasmodium falciparum, UniProt Q8IIL0); assay: Falcipain-3 protease inhibition assay (Z-Leu-Arg-AMC); assay type: biochemical
T1 construct: made in house
T1 sequence (Q8IIL0 243-492): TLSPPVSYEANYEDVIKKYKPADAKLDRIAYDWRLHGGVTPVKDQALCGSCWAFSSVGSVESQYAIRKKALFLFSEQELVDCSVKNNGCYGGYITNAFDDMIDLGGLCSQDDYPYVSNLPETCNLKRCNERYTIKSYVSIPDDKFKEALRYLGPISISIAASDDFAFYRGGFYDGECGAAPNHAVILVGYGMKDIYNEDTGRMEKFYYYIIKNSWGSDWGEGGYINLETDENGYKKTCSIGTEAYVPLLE
Method: (§1) Recombinant cruzain, rhodesain, TbCatB, falcipain-2 and falcipain-3 were expressed as described previously, [39], [40], [41], [42]. Inhibitor stock solutions were prepared in DMSO and screened at 0.1 µM for cruzain and rhodesain, 1 µM for TbCatB and 50 nM for falcipain-3 (0.5% DMSO in assay). […] Protease inhibition assays for cruzain and rhodesain were carried out in 96 well plate format as described previously. Cruzain (4 nM), rhodesain (4 nM) or TbCatB (258 nM) was incubated with test compound in 100 mM sodium acetate, pH 5.5, containing 5 mM DTT and 0.01% Triton X-100 (buffer A), for 5 min at room temperature (the higher concentration of TbCatB was required due to its lower intrinsic activity against the fluorogenic substrate). Then buffer A containing Z-Phe-Arg-AMC (Bachem) was added to enzyme-compound mixture to give 10 µM substrate in a final assay volume of 200 µL. The rate of free AMC release was measured at excitation and emission wavelengths of 355 and 460 nm, respectively, with a microtiter plate spectrofluorimeter (SpectraMax M5, Molecular Devices) for 3 min. Percentage inhibition of test compound was calculated relative to the DMSO control (0% inhibition control). IC50 values were determined with Prism 4 software (GraphPad, San Diego, CA) using sigmoidal dose-response variable slope model.
(§2) Protease inhibition assays for falcipain-2 and falcipain-3 were carried out in 96 well plate format as described previously, [43] with modification for end-point readout. Falcipain-2 (21 nM) or falcipain-3 (78 nM) was incubated with test compound for 10 min at room temperature in 200 mM sodium acetate, pH 6, 10 mM DTT and 3.6% glycerol and 0.01% Triton X-100 (buffer B). Then buffer B containing Z-Leu-Arg-AMC (Bachem) was added to the enzyme-compound mixture to give 25 µM substrate in a final assay volume of 200 µL. After 15 min, 50 µL of 5 M acetic acid was added to each well to stop the reaction. End-point fluorescence was read in a spectrofluorimeter as above. The 0% inhibition control wells contained DMSO while 100% inhibition control wells contained 50 µM E-64 (Sigma). Percentage inhibition of test compound was calculated relative to the controls and IC50 curve fitting was performed with Prism 4 software as above.

[2] = molecular target: T2, falcipain-2 (Plasmodium falciparum, UniProt Q8I6U4); assay: Falcipain-2 protease inhibition assay (Z-Leu-Arg-AMC); assay type: biochemical
T2 construct: made in house
T2 sequence (Q8I6U4 244-484): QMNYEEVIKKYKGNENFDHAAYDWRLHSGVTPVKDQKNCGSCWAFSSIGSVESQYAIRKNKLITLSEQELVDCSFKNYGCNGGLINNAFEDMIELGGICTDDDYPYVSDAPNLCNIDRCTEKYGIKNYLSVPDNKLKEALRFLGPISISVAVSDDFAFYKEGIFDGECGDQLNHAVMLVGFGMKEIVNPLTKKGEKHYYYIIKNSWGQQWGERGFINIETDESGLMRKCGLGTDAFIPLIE
Method: as §1, §2

[3] = test system: W2-strain P. falciparum parasites; assay: P. falciparum growth inhibition assay; assay type: cell-based, Plasmodium falciparum; settings: for GI50: Plasmodium falciparum, read-out: GI50 P. falc. W2
Method: The growth inhibition assay for P. falciparum was conducted as described previously. W2-strain P. falciparum parasites (1% parasitemia, 2% hematocrit) were cultured at 37°C in human red blood cells under the atmosphere of 3% O2, 5% CO2 balance N2 in 0.2 mL of per well in medium RPMI-1640 supplemented with 10% human serum in duplicate 96-well flat bottom culture plates in the presence of inhibitors. Tested compounds were serially diluted 1∶3 in the range 10,000 – 4.6 nM, with maximum DMSO concentration of 0.1%. Following 48 hours of incubation, the medium was removed and the cells were fixed in 2% formaldehyde in PBS. Parasite growth was evaluated by flow cytometry on a FACsort (Becton Dickinson) equipped with AMS-1 loader (Cytek Development) after staining with 1 nM DNA dye YOYO-1(Molecular Probes) in 100 mM NH4Cl, 0.8% NaCl. Parasitemias were determined from dot plots (forward scatter vs. fluorescence) using […] software (Becton Dickinson). IC50 values for growth inhibition were determined from plots of percentage control parasitemia over inhibitor concentration using GraphPad Prism software.

[4] = Jurkat cell cytotoxicity assay; assay type: cell-based; settings: human, Jurkat cells (clone E6-1), read-out: Cytotoxicity (% inhibition at 10 µM) Jurkat cells
Method: (§3) Jurkat cells (clone E6-1) were grown in complete RPMI-1640 medium containing 10% FBS, 50 U/mL penicillin and 50 µg/mL streptomycin (Invitrogen) at 37°C under a humidified atmosphere and 5% CO2. For cytotoxicity testing, cells were diluted to 1×10^5 per ml in complete RPMI-1640 medium. Test compound stocks were prepared in 100% DMSO and screened at 10 µM against cells (1×10^4 cells per well) in sterile Greiner 96-well flat white opaque culture plates (0.5% final DMSO concentration). The 0% inhibition control wells contained 0.5% DMSO while 100% inhibition control wells contained 40 µM staurosporine. After compound addition, plates were incubated for 40 hr at 37°C. At the end of the incubation period, 50 µL of CellTiter-Glo™ reagent (Promega Inc., Madison, WI, USA) was added to each well and plates were placed on an orbital shaker at room temperature for 2 min to induce lysis. After a further 10 min incubation without shaking to stabilize the signal, the ATP-bioluminescence of each well was determined using an Analyst HT plate reader (Molecular Devices, Sunnyvale, CA, USA). Calculations of percentage inhibition and IC50 were performed similar to those in the T. brucei brucei assay.

[5] = molecular target: human cathepsin L; set-up: method as in data provided by Celera Genomics; settings: historical data; ref data provided by Celera Genomics; read-out: Ki catL; cited from earlier work
[6] = molecular target: human cathepsin B; set-up: method as in data provided by Celera Genomics; settings: historical data; ref data provided by Celera Genomics; read-out: Ki catB; cited from earlier work
[7] = molecular target: T3, rhodesain (Trypanosoma brucei rhodesiense, UniProt Q95PM0); assay: Rhodesain protease inhibition assay (Z-Phe-Arg-AMC); assay type: biochemical
T3 construct: made in house
T3 sequence (Q95PM0 entry or part of it): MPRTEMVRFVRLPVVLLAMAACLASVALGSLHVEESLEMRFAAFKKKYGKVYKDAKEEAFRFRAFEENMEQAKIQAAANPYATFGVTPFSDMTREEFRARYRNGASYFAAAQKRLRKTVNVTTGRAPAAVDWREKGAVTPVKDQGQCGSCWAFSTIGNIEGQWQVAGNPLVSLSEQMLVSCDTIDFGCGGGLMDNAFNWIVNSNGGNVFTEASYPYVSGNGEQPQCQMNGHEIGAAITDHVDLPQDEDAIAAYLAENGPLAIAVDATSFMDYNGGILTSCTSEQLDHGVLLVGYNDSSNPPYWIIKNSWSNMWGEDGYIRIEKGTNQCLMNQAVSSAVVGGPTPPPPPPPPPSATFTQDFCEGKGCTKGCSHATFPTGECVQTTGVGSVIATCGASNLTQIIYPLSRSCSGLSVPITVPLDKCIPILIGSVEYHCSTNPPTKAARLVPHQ
Method: as §1

[8] = molecular target: T4, cruzain (Trypanosoma cruzi, UniProt P25779); assay: Cruzain protease inhibition assay (Z-Phe-Arg-AMC); assay type: biochemical
T4 construct: made in house
T4 sequence (P25779 123-467): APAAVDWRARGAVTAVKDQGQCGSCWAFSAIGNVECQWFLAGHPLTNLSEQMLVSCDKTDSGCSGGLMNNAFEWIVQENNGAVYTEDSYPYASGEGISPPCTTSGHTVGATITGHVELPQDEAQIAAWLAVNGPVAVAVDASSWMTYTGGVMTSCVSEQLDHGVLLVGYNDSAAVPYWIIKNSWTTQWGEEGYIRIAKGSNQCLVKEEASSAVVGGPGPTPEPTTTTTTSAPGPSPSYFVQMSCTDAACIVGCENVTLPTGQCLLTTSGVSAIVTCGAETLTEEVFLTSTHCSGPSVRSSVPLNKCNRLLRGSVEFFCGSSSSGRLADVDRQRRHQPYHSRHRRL
Method: as §1

[9] = test system: T. brucei brucei clone 427-221a bloodstream forms; assay: T. brucei brucei growth inhibition assay; assay type: cell-based; settings: Trypanosoma brucei; 40 hours
Method: The growth inhibition assay for T. brucei brucei was conducted as described previously. Bloodstream forms of the monomorphic T. brucei brucei clone 427-221a were grown in complete HMI-9 medium containing 10% FBS, 10% Serum Plus medium (Sigma Inc. St. Louis Mo. USA), 50 U/mL penicillin and 50 µg/mL streptomycin (Invitrogen) at 37°C under a humidified atmosphere and 5% CO2. […] 5 µL of each dilution was added to 95 µL of diluted parasites (1×10^4 cells per well) in sterile Greiner 96-well flat white opaque culture plates such that the final DMSO concentration was 0.5%. The 0% inhibition control wells contained 0.5% DMSO while 100% inhibition control wells contained 50 µM thimerosal (Sigma). After compound addition, plates were incubated for 40 hours at 37°C. At the end of the incubation period, 50 µL of CellTiter-Glo™ reagent (Promega Inc., Madison, WI, USA) was added to each well and plates were placed on an orbital shaker at room temperature for 2 min to induce lysis. After an additional 10 min incubation without shaking to stabilize the signal, the ATP-bioluminescence of each well was determined using an Analyst HT plate reader (Molecular Devices, Sunnyvale, CA, USA). Raw values were converted to log10 and percentage inhibition calculated relative to the controls. IC50 curve fittings were performed with Prism 4 software as above.

[10] = test system: intracellular T. cruzi (CA-I/72) in BESM cells; assay: T. cruzi amastigote growth inhibition assay; assay type: cell-based; settings: Trypanosoma cruzi; infected BESM cells, 72 hours
Method: (§4) The growth inhibition assay for the intracellular T. cruzi was conducted in 96-well plate format as described previously. Briefly, bovine embryo skeletal muscle (BESM) cells (2×10^3/well), seeded overnight, were infected with CA-I/72 T. cruzi trypomastigotes (2×10^3/well). Sixteen hours post-infection, test compounds (serial dilution concentrations starting from 20 µM) were added and assay plates were incubated for an additional 72 hours at 37°C with 5% CO2. Cells were then washed once in PBS, fixed with 4% paraformaldehyde and stained with DNA fluorescent dye DAPI (4′ 6-diamidino-2-phenylindole). The assay plates were then imaged in the IN Cell Analyzer 2000 (GE Healthcare) with the excitation and emission filters set of 350 nm and 460 nm, respectively, to detect DAPI signals. The feature extraction module in IN Cell Developer Toolbox 1.7 software was used to count host nuclei and parasite kinetoplasts by size difference.

[11] = test system: Jurkat cells (clone E6-1); assay: Jurkat cell cytotoxicity assay; assay type: cell-based; settings: 40 hr
Method: as §3

[12] = test system: bovine embryo skeletal muscle (BESM) cells; assay: Toxicity toward host BESM cells in the T. cruzi assay; assay type: cell-based; settings: 20 µM
Method: as §4
All falcipain-3 inhibitors were also tested against falcipain-2. […] The entire library was examined for cytotoxicity to a mammalian cell line (Jurkat) at a concentration of 10 µM, and those compounds studied in the T. cruzi assay were also evaluated for toxicity (at 20 µM) toward the host BESM cells used in that assay. […]

[13] = molecular target: T5, TbCatB (Trypanosoma brucei, UniProt Q6R7Z5); assay: TbCatB protease inhibition assay (Z-Phe-Arg-AMC); assay type: biochemical
T5 construct: made in house
T5 sequence (Q6R7Z5 23-340): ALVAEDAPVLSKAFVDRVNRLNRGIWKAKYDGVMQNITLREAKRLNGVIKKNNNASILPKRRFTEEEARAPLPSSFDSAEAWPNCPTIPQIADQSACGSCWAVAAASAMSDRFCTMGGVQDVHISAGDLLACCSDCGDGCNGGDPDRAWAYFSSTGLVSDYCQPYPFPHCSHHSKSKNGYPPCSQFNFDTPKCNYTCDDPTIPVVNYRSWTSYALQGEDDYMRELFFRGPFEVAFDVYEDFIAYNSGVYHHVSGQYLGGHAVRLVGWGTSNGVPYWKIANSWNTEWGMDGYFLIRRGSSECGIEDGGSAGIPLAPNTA
Method: as §1

| Structure (SMILES) | IC50 ([1]; read-out: IC50 falcipain-3) | IC50 [2] | GI50 ([3]; cultured W2 strain, 48 hours) | cytotoxicity at 40 h, 10 µM [4] | Ki [5] | Ki [6] | IC50 [1] | GI50 ([3]; W2, 48 h) | GI50 P. falc. W2 ([3]; cultured W2 strain, 48 hours) | IC50 [7] | IC50 [8] | GI50 [9] | GI50 [10] | Cytotoxicity (% inhibition at 10 µM) Jurkat cells [11] | Inhibition of growth of BESM cells [12] | IC50 [13] |
| --- | --- | --- | --- | --- | --- | --- | --- | --- | --- | --- | --- | --- | --- | --- | --- | --- |
| CC(C)CC(NC(=O)N1CCOCC1)C(=O)NC(C=CS(=O)(=O)c1ccccc1)CCc1ccc(O)cc1 (stereo not drawn) [Compound 18a] | 40 nM | 7.6 nM | 20 nM | < 5% | 3 nM | 440 nM |  |  |  |  |  |  |  |  |  |  |
| CC(C)CC(NC(=O)N1CCOCC1)C(=O)NC(C=CS(=O)(=O)c1ccccc1)CCc1ccccc1 (stereo not drawn) [Compound 18b] |  | 3.6 nM |  | < 5% |  | 210 nM | 29 nM | 40 nM |  |  |  |  |  |  |  |  |
| CCCCC(NC(=O)C(CC(C)C)NC(C)=O)C(=O)c1nc2ccccc2o1 (stereo not drawn) [Compound 19c] | 17 nM | 66 nM | 4800 nM | < 5% | 610 nM | 920 nM |  |  |  |  |  |  |  |  |  |  |
| N#CC1(NC(=O)C(CC2CCCCC2)NC(=O)c2cccc(-c3cccc(S(N)(=O)=O)c3)c2)CCS(=O)(=O)CC1 (stereo not drawn) [Compound 20] | 11 nM | 7.5 nM | 170 nM | < 5% |  |  |  |  | sub-micromolar |  |  |  |  |  |  |  |
| CC(C)CC(NC(c1ccc(-c2ccc(S(C)(=O)=O)cc2)cc1)c1nccs1)C(=O)NC1(C#N)CC1 (stereo not drawn) [Compound 21] | 2.4 nM | 2 nM | 870 nM | < 5% | 32 nM | 6700 nM |  |  | sub-micromolar |  |  |  |  |  |  |  |
| CC(C)CC(NC(=O)c1ccc(-c2csc(Nc3ccncc3)n2)cc1)C(=O)NCCN(CC(C)C)CC(C)C (stereo not drawn) [Compound 22] |  |  |  | < 5% | 71 nM | 4500 nM |  |  |  | 0.64 µM | 1600 nM | 0.2 µM | 0.8 µM | did not inhibit the growth | ~90% |  |
| CCC[C@H](NC(=O)C1(NC(=O)c2ccc(-c3csc(N4CCN(C)CC4)n3)cc2)CCCCC1)C(=O)c1nc2ccccc2o1 [Compound 23a] |  |  |  | < 5% | 1100 nM | 320 nM |  |  |  | 3.9 µM | 30 nM | 4.2 µM | 19 µM |  |  | 70 nM |
| CCCC[C@H](NC(=O)C1(NC(=O)c2ccc(-c3csc(N4CCN(C)CC4)n3)cc2)CCCCC1)C(=O)c1nc2ccccc2o1 [Compound 23b] |  |  |  | < 5% | 280 nM | 610 nM |  |  |  | 5 µM | 380 nM | 10.5 µM | 7.7 µM |  |  | 1 nM |
